The supplement of paper PMC10307832

How the values were obtained:
Experiment in all cases: relative viability (nuclei count vs DMSO), 5 days (fraction); higher = more cells survive
Entinostat + Vorinostat = compound: Nc1ccccc1NC(=O)c1ccc(CNC(=O)OCc2cccnc2)cc1 [Entinostat] + O=C(CCCCCCC(=O)Nc1ccccc1)NO [Vorinostat] (partner 1 µM)
In short: (§1)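 For relative viability, nuclei counts in treated wells were divided by those in vehicle wells. Lung cancer cell lines had been pin-tool dosed in 1536-well plates the day after seeding and cultured for 5 days, then fixed and stained in one step (final 0.05% Triton X-100, 1% formaldehyde, 1 ug/ml Hoechst) and imaged at 4×. Doses were one drug alone or a fixed anchor-drug dose plus five library-drug doses (not always all listed) in √10 steps, and values are duplicate-plate medians.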

Entinostat + Crizotinib = compound: Nc1ccccc1NC(=O)c1ccc(CNC(=O)OCc2cccnc2)cc1 [Entinostat] + C[C@@H](Oc1cc(-c2cnn(C3CCNCC3)c2)cnc1N)c1c(Cl)ccc(F)c1Cl [Crizotinib] (partner 1 µM)
In short: as §1

SGI-1776 + Tozasertib = compound: CN1CCC(CNc2ccc3ncc(-c4cccc(OC(F)(F)F)c4)n3n2)CC1 [SGI-1776] + Cc1cc(Nc2cc(N3CCN(C)CC3)nc(Sc3ccc(NC(=O)C4CC4)cc3)n2)n[nH]1 [Tozasertib] (partner 0.1 µM)
In short: as §1

[1] = compound: C1COCCN1C2=NC(=NC3=C2OC4=C3C=CC=N4)C5=CC(=CC=C5)NC(=O)C6=CN=C(C=C6)N + COc1cccc2cc(-c3nc([C@H]4CC[C@H](C(=O)O)CC4)n4ncnc(N)c34)[nH]c12 [OSI-027] (partner 0.5 µM)
In short: as §1

Row | Cell Line | relative viability (Entinostat + Vorinostat; first compound 0.02 µM) | relative viability (Entinostat + Vorinostat; first compound 0.06325 µM) | relative viability (Entinostat + Vorinostat; first compound 0.2 µM) | relative viability (Entinostat + Vorinostat; first compound 0.6325 µM) | relative viability (Entinostat + Vorinostat; first compound 2 µM) | relative viability (Entinostat + Crizotinib; first compound 0.02 µM) | relative viability (Entinostat + Crizotinib; first compound 0.06325 µM) | relative viability (Entinostat + Crizotinib; first compound 0.2 µM) | relative viability (Entinostat + Crizotinib; first compound 0.6325 µM) | relative viability (Entinostat + Crizotinib; first compound 2 µM) | relative viability (SGI-1776 + Tozasertib; first compound 0.08 µM) | relative viability (SGI-1776 + Tozasertib; first compound 0.8 µM) | relative viability (SGI-1776 + Tozasertib; first compound 2.53 µM) | relative viability (SGI-1776 + Tozasertib; first compound 8 µM) | relative viability ([1]; first compound 0.02 µM) | relative viability ([1]; first compound 0.06325 µM) | relative viability ([1]; first compound 0.2 µM) | relative viability ([1]; first compound 0.6325 µM) | relative viability ([1]; first compound 2 µM)
1 | IA-LM | 0.972 | 0.997 | 1.13 | 0.863 | 0.682 | 0.731 | 0.855 | 0.928 | 0.728 | 0.651 |  |  |  |  |  |  |  |  | 
2 | A549 |  |  |  |  |  | 0.775 | 0.863 | 0.743 | 0.449 | 0.111 |  |  |  |  |  |  |  |  | 
3 | NCI-H2342 | 0.855 | 0.859 | 0.709 | 0.772 | 0.691 |  |  |  |  |  | 0.668 | 0.456 | 0.504 | 0.357 | 0.666 | 0.603 | 0.661 | 0.615 | 0.649
4 | NCI-H1623 |  |  |  |  |  |  |  |  |  |  | 0.436 | 0.425 | 0.39 | 0.45 | 0.459 | 0.434 | 0.447 | 0.414 | 0.405
5 | SW 1573 | 0.698 | 0.891 | 0.88 | 0.422 | 0.43 | 0.848 | 0.865 | 0.937 | 0.761 | 0.592 | 0.174 | 0.16 | 0.174 | 0.17 | 0.592 | 0.776 | 0.75 | 0.477 | 0.371
6 | NCI-H2087 | 1.07 | 0.407 | 0.697 | 0.451 | 0.157 | 0.716 | 0.672 | 0.818 | 0.559 | 0.467 | 0.257 | 0.198 | 0.186 | 0.192 | 0.508 | 0.508 | 0.47 | 0.472 | 0.267
7 | NCI-H520 | 0.634 | 0.732 | 0.764 | 0.491 | 0.306 | 0.735 | 0.613 | 0.779 | 0.413 | 0.251 | 0.436 | 0.442 | 0.427 | 0.385 | 0.263 | 0.257 | 0.233 | 0.263 | 0.211
8 | Calu-6 |  |  |  |  |  | 0.738 | 0.713 | 0.755 | 0.494 | 0.317 |  |  |  |  |  |  |  |  | 
9 | SK-LU-1 | 0.775 | 0.801 | 0.747 | 0.579 | 0.582 | 0.935 | 0.756 | 0.733 | 0.572 | 0.511 | 0.397 | 0.265 | 0.212 | 0.207 | 0.38 | 0.36 | 0.348 | 0.329 | 0.266
10 | LCLC-97TM1 | 0.65 | 0.742 | 0.588 | 0.398 | 0.161 | 0.285 | 0.435 | 0.303 | 0.273 | 0.151 | 0.211 | 0.188 | 0.163 | 0.185 | 0.525 | 0.519 | 0.485 | 0.507 | 0.353
11 | HCC-15 | 0.81 | 0.807 | 0.636 | 0.51 | 0.266 | 0.792 | 0.744 | 0.745 | 0.548 | 0.307 | 0.386 | 0.312 | 0.118 | 0.112 | 0.709 | 0.702 | 0.644 | 0.506 | 0.456
12 | H3255 | 0.902 | 0.303 | 0.65 | 0.483 | 0.37 | 0.9 | 0.747 | 0.777 | 0.452 | 0.286 | 0.574 | 0.825 | 0.625 | 0.277 | 0.626 | 0.56 | 0.464 | 0.465 | 0.552
13 | NCI-H522 | 0.794 | 0.944 | 0.863 | 0.741 | 0.428 |  |  |  |  |  | 0.654 | 0.557 | 0.502 | 0.523 | 0.75 | 0.732 | 0.714 | 0.687 | 0.721
14 | NCI-H1648 | 0.65 | 0.336 | 0.345 | 0.342 | 0.208 |  |  |  |  |  | 0.58 | 0.503 | 0.451 | 0.284 | 0.285 | 0.229 | 0.264 |  | 0.279
15 | NCI-H1792 |  |  |  |  |  | 0.979 | 1.04 | 0.86 | 0.796 | 0.569 |  |  |  |  | 0.659 | 0.684 | 0.753 | 0.679 | 0.42
16 | NCI-H1703 |  |  |  |  |  | 0.674 | 0.786 | 0.884 | 0.415 | 0.358 |  |  |  |  |  |  |  |  | 
17 | EBC-1 |  |  |  |  |  | 0.177 | 0.191 | 0.215 | 0.202 | 0.159 |  |  |  |  |  |  |  |  | 
18 | NCI-H1395 | 1.05 | 0.96 | 0.829 | 0.65 | 0.463 |  |  |  |  |  | 0.83 | 0.817 | 0.644 | 0.39 | 0.562 | 0.49 | 0.523 | 0.604 | 0.519
19 | NCI-H1563 |  |  |  |  |  | 0.781 | 0.907 | 0.759 | 0.711 | 0.735 |  |  |  |  | 0.824 | 0.766 | 0.719 | 0.659 | 0.706
20 | NCI-H1793 | 0.78 | 0.854 | 0.801 | 0.439 | 0.29 |  |  |  |  |  | 0.335 | 0.248 | 0.252 | 0.22 | 0.253 | 0.301 | 0.251 | 0.177 | 0.233
